# Data from patent publication US20110172244A1 (IRM LLC, priority 2008, published 2011).
# Target: T1, human GPR119 (Homo sapiens, UniProt Q8TDV5)
# T1 construct: expressed in transfected cells
# T1 sequence (Q8TDV5 1-335): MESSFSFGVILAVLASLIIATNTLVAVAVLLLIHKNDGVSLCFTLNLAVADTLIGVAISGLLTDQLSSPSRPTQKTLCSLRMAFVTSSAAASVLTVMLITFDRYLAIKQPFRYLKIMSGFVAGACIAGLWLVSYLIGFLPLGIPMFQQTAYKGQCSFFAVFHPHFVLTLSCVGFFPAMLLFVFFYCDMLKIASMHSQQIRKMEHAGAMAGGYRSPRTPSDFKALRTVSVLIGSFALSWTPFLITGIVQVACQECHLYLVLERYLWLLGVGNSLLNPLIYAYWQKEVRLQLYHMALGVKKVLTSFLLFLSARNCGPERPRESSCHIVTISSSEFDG
# Assay: Cyclic AMP assay in stable cell line (Flp-In-CHO-hGPR119, HTRF)
# Type: cell-based
# Conditions: Flp-In-CHO-hGPR119 cells, cAMP HTRF, 1 mM IBMX, 30 minutes at 37° C.; read-out: CHO-GPR119-HTRF (3158) EC50
# Protocol: Generation of Stable Cell Line
# Flp-In-CHO cells (Invitrogen, Cat. #R758-07) are maintained in Ham's F12 medium supplemented with 10% fetal bovine serum, 1% antibiotic mixture and 2 mM L-glutamine. The cells are transfected with a DNA mixture containing human GPR119 in pcDNA5/FRT vector and the pOG44 vector (1:9) using Fugene6 (Roche), according to the manufacturer's instruction. After 48 hours, the medium is changed to medium supplemented with 400 μg/ml hygromycin B to initiate the selection of stably transfected cells.
# Cyclic AMP Assay in Stable Cell Line
# To test the activity of compounds of the invention, Flp-In-CHO-hGPR119 cells are harvested and resuspended in DMEM plus 3% lipid-depleted fetal bovine serum. Forth μl of cells are plated in 384 well plates at a density of 15,000 cells/well. IBMX (3-isobutyl-1-methyl-xanthine) is added to the cells to a final concentration of 1 mM, followed by the addition of 500 nl of the compound to be tested. The cells are incubated at 37° C. for 30 minutes. Equal volume (20 μl) of the HTRF reagents, anti-cAMP-Cryptate and cAMP-XL665, are added to the cells. The plates are incubated at room temperature for 1 hour and read on a HTRF reader according to the manufacturer's instruction.
row,Compound,EC50 [nM]
1,"O=C(c1[nH]c2ccc(F)cc2c1S(=O)(=O)c1ccc(Cl)cc1)N1CCC(Cc2ccccc2)CC1 [Example A1, (4-benzylpiperidin-1-yl)(3-(4-chlorophenylsulfonyl)-5-fluoro-1H-indol-2-yl)methanone]",12
2,"O=C(c1[nH]c2ccccc2c1S(=O)(=O)c1ccc(Cl)cc1)N1CCN(Cc2c(F)cccc2Cl)CC1 [Example A2, (4-(2-chloro-6-fluorobenzyl)piperazin-1-yl)(3-(4-chlorophenylsulfonyl)-1H-indol-2-yl)methanone]",7
3,"Cc1ccc(OC2CCN(C(=O)c3[nH]c4ccccc4c3S(=O)(=O)c3ccc(Cl)cc3)CC2)cc1 [Example A3, (3-(4-chlorophenylsulfonyl)-1H-indol-2-yl)(4-(p-tolyloxy)piperidin-1-yl)methanone]",9
4,"O=C(c1[nH]c2ccccc2c1S(=O)(=O)c1ccc(Cl)cc1)N1CCC(Oc2ccc(C(F)(F)F)cc2)CC1 [Example A4, (3-(4-chlorophenylsulfonyl)-1H-indol-2-yl)(4-(4-(trifluoromethyl)phenoxy)piperidin-1-yl)methanone]",10
5,"O=C(c1[nH]c2ccccc2c1S(=O)(=O)c1ccc(Cl)cc1)N1CCN(Cc2ccc(Cl)cc2)CC1 [Example A5, (4-(4-chlorobenzyl)piperazin-1-yl)(3-(4-chlorophenylsulfonyl)-1H-indol-2-yl)methanone]",17
6,"Cc1ccc(SC2CCN(C(=O)c3[nH]c4ccccc4c3S(=O)(=O)c3ccc(Cl)cc3)CC2)cc1 [Example A6, (3-(4-chlorophenylsulfonyl)-1H-indol-2-yl)(4-(p-tolylthio)piperidin-1-yl)methanone]",18
7,"O=C(c1[nH]c2ccccc2c1S(=O)(=O)c1ccc(Cl)cc1)N1CCC(CCc2ccccc2)CC1 [Example A7, (3-(4-chlorophenylsulfonyl)-1H-indol-2-yl)(4-phenethylpiperidin-1-yl)methanone]",18
8,"O=C(c1[nH]c2ccccc2c1S(=O)(=O)c1ccc(Cl)cc1)N1CCN(CC2CCCCC2)CC1 [Example A11, (3-(4-chlorophenylsulfonyl)-1H-indol-2-yl)(4-(cyclohexylmethyl)piperazin-1-yl)methanone]",32
9,"O=C(c1[nH]c2ccccc2c1S(=O)(=O)c1ccc(Cl)cc1)N1CCN(Cc2ccc3c(c2)OCO3)CC1 [Example A12, (4-(benzo[d][1,3]dioxol-5-ylmethyl)piperazin-1-yl)(3-(4-chlorophenylsulfonyl)-1H-indol-2-yl)methanone]",40
10,"CN(Cc1ccccc1)C1CCN(C(=O)c2[nH]c3ccccc3c2S(=O)(=O)c2ccc(Cl)cc2)CC1 [Example A19, (4-(benzyl(methyl)amino)piperidin-1-yl)(3-(4-chlorophenylsulfonyl)-1H-indol-2-yl)methanone]",533
11,"CN(CCOc1ccccc1)C(=O)c1[nH]c2ccccc2c1S(=O)(=O)c1ccc(Cl)cc1 [Example A20, 3-(4-chlorophenylsulfonyl)-N-methyl-N-(2-phenoxyethyl)-1H-indole-2-carboxamide]",192
12,"O=C(c1[nH]c2ccccc2c1S(=O)(=O)c1ccc(Cl)cc1)N1CCN(Cc2ccncc2)CC1 [Example A22, (3-(4-chlorophenylsulfonyl)-1H-indol-2-yl)(4-(pyridin-4-ylmethyl)piperazin-1-yl)methanone]",435
13,"O=C(NCCCCc1ccccc1)c1[nH]c2ccccc2c1S(=O)(=O)c1ccc(Cl)cc1 [Example A23, 3-(4-chlorophenylsulfonyl)-N-(4-phenylbutyl)-1H-indole-2-carboxamide]",396
14,"O=C(c1[nH]c2ccccc2c1S(=O)(=O)c1ccc(Cl)cc1)N1CCCCC1 [Example A24, (3-(4-chlorophenylsulfonyl)-1H-indol-2-yl)(piperidin-1-yl)methanone]",574
15,"O=C(c1oc2ccccc2c1S(=O)(=O)c1ccc(Cl)cc1)N1CCC(Oc2ccc(C(F)(F)F)cc2)CC1 [Example A29, (3-(4-Chlorophenylsulfonyl)benzofuran-2-yl)(4-(4-(trifluoromethyl)phenoxy)piperidin-1-yl)methanone]",54
16,"O=C(c1oc2ccccc2c1S(=O)(=O)c1ccc(Cl)cc1)N1CCN(Cc2ccccc2)CC1 [Example A30, (4-benzylpiperazin-1-yl)(3-(4-chlorophenylsulfonyl)benzofuran-2-yl)methanone]",187

# Second part, the compound after the results:
row,EC50 [nM],Compound
1,22,"O=C(c1[nH]c2c(F)cccc2c1S(=O)(=O)c1ccc(Cl)cc1)N1CCC(Cc2ccccc2)CC1 [Example B1, (4-benzylpiperidin-1-yl)(3-(4-chlorophenylsulfonyl)-7-fluoro-1H-indol-2-yl)methanone]"
2,210,"O=C(c1[nH]c2ccccc2c1S(=O)(=O)Cc1ccccc1)N1CCC(Cc2ccccc2)CC1 [Example B2, (4-benzylpiperidin-1-yl)(3-benzylsulfonyl-1H-indol-2-yl)methanone]"
3,755,"O=C(c1[nH]c2ccccc2c1SC1CCCCC1)N1CCC(Cc2ccccc2)CC1 [Example B3, (4-benzylpiperidin-1-yl)(3-(cyclohexylthio)-1H-indol-2-yl)methanone]"
4,149,O=C(c1[nH]c2ccccc2c1S(=O)(=O)C1CCCCC1)N1CCC(Cc2ccccc2)CC1 [Example B4]
5,169,"Cn1c(C(=O)N2CCC(Cc3ccccc3)CC2)c(S(=O)(=O)c2ccc(Cl)cc2)c2ccccc21 [Example B5, (4-Benzylpiperidin-1-yl)(3-(4-chlorophenylsulfonyl)-1-methyl-1H-indol-2-yl)methanone]"
6,42,"O=C(c1[nH]c2ccccc2c1S(=O)(=O)CCc1ccccc1)N1CCC(Cc2ccccc2)CC1 [Example B11, (4-benzylpiperidin-1-yl)(3-(phenethylsulfonyl)-1H-indol-2-yl)methanone]"
7,454,"O=C(c1[nH]c2ccccc2c1Sc1ccccc1)N1CCC(Cc2ccccc2)CC1 [Example C1, (4-Benzylpiperidin-1-yl)(3-(phenylthio)-1H-indol-2-yl)methanone]"
8,180,"O=C(c1[nH]c2ccccc2c1Sc1ccc(Cl)cc1)N1CCC(Cc2ccccc2)CC1 [Example C2, (4-benzylpiperidin-1-yl)(3-(4-chlorophenylthio)-1H-indol-2-yl)methanone]"
